Assay results as given in patent publication US9896471B2, “Salt of 1-(2-deoxy-2-fluoro-4-thio-β-D-arabinofuranosyl)cytosine” (FUJIFILM Corporation, priority 2012, dated 2018).
Values after ≈ are worked out from the molar mass of the structure shown.

Assays:
[1] = Flowability test (compaction rate); type: physicochemical; conditions: powder sieved 177 μm mesh; (compacted − loose bulk density)/compacted bulk density × 100
From the text: The obtained powdery sample was roughly filled in a glass measuring cylinder (10 cm^3), the upper surface of the powder layer was horizontally smoothened, and the value of the volume was read. The weight of the powdery sample was divided with the volume to obtain loose bulk density (g/cm^3).
Then, the glass measuring cylinder filled with the powdery sample was tapped by using a general powdery characteristic measuring apparatus (Powdertester Type PT-E, Hosokawa Micron CORP.). When the volume of the powder layer no longer changed, the value of the volume was read. The weight of the powdery sample was divided with the volume to obtain compacted bulk density (g/cm^3).
The compaction rate (%) was obtained in accordance with the following equation. Compaction rate (%)=[(Compacted bulk density−Loose bulk density)/Compacted bulk density]×100

tumors = conditions: orally administered to mice; Non-patent documents 1 and 2; cited from earlier work
Tableting property test = type: physicochemical; conditions: average of five tabletings; 5 points surface has gloss, 1 point surface is chipped, 0 point tablets stick to pestle; 1000 kgf, 100 mg tablet
Protocol: The obtained powdery sample was compression-molded by using a tableting machine (Tableting Machine HT-P18A, Hata Iron Works, Ltd.; tableting diameter, 6.5 mm; tableting pressure, 1000 kgf; tablet weight, 100 mg) to obtain tablets. The obtained tablets were macroscopically observed, and graded according to the following criteria.
5 Points: Surface has gloss.
4 Points: Surface is slightly roughened.
3 Points: Surface is roughened.
2 Points: Surface is slightly chipped.
1 Point: Surface is chipped.
0 Point: Tablets stick to pestle, and cannot be unstuck.
The tableting was performed five times, and averages of the scores of the tablets were calculated.

BxPC-3 = assay: Antitumor activity: cell proliferation inhibition (ATPlite); type: cell-based; conditions: BxPC-3, 1000 cells/well, 3 days culture
Protocol: (§1) Cells at the logarithmic phase were inoculated on a 96-well plate at a density of 1000 cells/well (BxPC-3, MIA PaCa-2) or 3000 cells/well (Capan-1), and cultured overnight at 37° C. in a CO2 incubator. On the next day, serially diluted solutions of each test compound were added, and culture was performed for 3 days in an incubator. After completion of the culture, by using a cell proliferation assay kit ATPlite (Perkin Elmer), and a plate reader Envision (Perkin Elmer), emission was measured. Concentrations of the test compounds providing 50% of cell proliferation inhibition (IC50) were calculated by fitting using a sigmoid function. The solutions of the test compounds were prepared by diluting them with PBS (pH 7.4) at 10 mM, and further diluting the 10 mM solutions with PBS (pH 7.4), and used in the test.

MIA PaCa-2 = assay: as above; type: cell-based; conditions: MIA PaCa-2, 1000 cells/well, 3 days culture
Protocol: as §1

Capan-1 = assay: as above; type: cell-based; conditions: Capan-1, 3000 cells/well, 3 days culture
Protocol: as §1

[2] = Stability test (deliquescence on storage); type: physicochemical; conditions: stored 2 weeks, open state, 60° C. and 75% relative humidity, macroscopic observation
Protocol: The compounds of Examples 1 and 2 were stored for 2 weeks in an open state under conditions of 60° C. and 75% relative humidity. The test compounds were macroscopically observed after the storage, and presence or absence of deliquescence was examined.

Protocol for Solubility test in water: Each of the test compounds and the comparative compound was added to water, and the mixture was stirred at room temperature for 24 hours. The insoluble matter was removed by filtration using a membrane filter (0.2 μm). The filtrate was analyzed by high performance liquid chromatography (HPLC) to obtain the solubility.

| Structure (SMILES) | solubility at 24 h (Solubility test in water; thermodynamic from solid) [µg/mL] | Compaction rate [1] [%] | antitumor activity (tumors) | Score (tableting property) (Tableting property test) | IC50 (BxPC-3; Homo sapiens, 72 h) [nM] | IC50 (MIA PaCa-2; Homo sapiens, 72 h) [nM] | IC50 (Capan-1; Homo sapiens, 72 h) [nM] | Solubility in water (Solubility test in water; room temperature, stirred 24 hours, 0.2 μm filtration, HPLC) [µg/mL] | IC50 (BxPC-3) [nM] | IC50 (MIA PaCa-2) [nM] | IC50 (Capan-1) [nM] | presence or absence of deliquescence [2] |
| --- | --- | --- | --- | --- | --- | --- | --- | --- | --- | --- | --- | --- |
| Nc1ccn([C@@H]2S[C@H](CO)[C@@H](O)[C@@H]2F)c(=O)n1 [Comparative compound, 1-(2-deoxy-2-fluoro-4-thio-β-D-arabinofuranosyl)cytosine] | 2000 (≈ 7.65 mM) | 41 | potent antitumor activity | 1.0 | 45 | 382 | 35 |  |  |  |  |  |
| CS(=O)(=O)O.Nc1ccn([C@@H]2S[C@H](CO)[C@@H](O)[C@@H]2F)c(=O)n1 [Example 1, methanesulfonate of 1-(2-deoxy-2-fluoro-4-thio-β-D-arabinofuranosyl)cytosine] |  | 18 |  | 4.5 |  |  |  | 79000 | 45 | 373 | 36 | did not deliquesce |
| Cl.Nc1ccn([C@@H]2S[C@H](CO)[C@@H](O)[C@@H]2F)c(=O)n1 [Example 2, hydrochloride of 1-(2-deoxy-2-fluoro-4-thio-β-D-arabinofuranosyl)cytosine] |  | 21 |  | 5.0 |  |  |  |  | 41 | 417 | 31 | did not deliquesce |
